Assay [1] has as its system ZIKV^Br. Description: Virus yield assay, ZIKV^Br on Vero TMPRSS cells. Format: cell-based. The conditions noted are these: Zika virus, 95% CI in brackets.
In assay [2] the test system is ZIKV^Br. As to the kind of experiment: Virus yield assay, ZIKV^Br on C6/36 cells. The format is cell-based. The conditions noted are these: Zika virus, 95% CI in brackets.
The subject of assay [3] is ZIKV^Br. Description: Virus yield assay, ZIKV^Br on A549 cells. Format: cell-based. The conditions noted are these: Zika virus, 95% CI in brackets.
The subject of assay [4] is VSV. Description: microbe, parasite or virus in culture. Format: cell-based. To be noted: Vesicular stomatitis virus, Huh-7.
Assay [5] has as its system VV-IND-G. Description: microbe, parasite or virus in culture. Format: cell-based, Vaccinia virus recombinant for VSV-Indiana G protein. The conditions noted are these: Orthopoxvirus vaccinia, Huh-7.
The test system of assay [6] is TOSV. Description: Plaque reduction assay, TOSV on VeroE6 cells. The conditions noted are these: Toscana virus, Vero C1008. The format is cell-based. For orientation: In a plaque reduction assay, fewer plaques than in the control indicate reduced infectivity or spread.
In assay [7] the test system is ZIKV NS5. As to the kind of experiment: ZIKV protein synthesis by western blot (NS5), Huh-7 cells. To be noted: MOI 1, 1x, 5x, 10x EC50 (PS1097 0.6, 3, 6 μM; SOF 1.5, 7.5, 15 μM), 48 h. The format is cell-based, Zika virus. The method, then: Immunoblotting was performed as described.
Viral protein levels in cell lysates were analyzed by immunoblotting (Figure 3A,B), while virion release was assessed by quantifying ZIKV RNA in supernatants (Figure 3C).
Impact of treatment on ZIKV protein synthesis was evaluated on cell extracts analyzed by western blot using anti‐ ZIKV NS5, or anti‐GAPDH as a housekeeping control.
In general terms: In western blotting, separated proteins are transferred to a membrane and probed.

Assay [8] deals with ZIKV^Br. As to the kind of experiment: Time-of-addition (TOA) experiments, ZIKV^Br in Huh-7 cells. Format: cell-based, Zika virus. To be noted: harvest 48 h p.i. The method, then: PS1097 was added at 6 μM at 0, 2, 6, 12, 24, and 36 h p.i. SOF was used as a reference compound at 15 μM. At 48 h p.i., viral proteins were determined by western blot or by qRT‐PCR in cell lysates.
To elucidate the mechanism of PS1097 antiviral action, TOA experiments were conducted (Figure 4A). ZIKV^Br replication kinetics was assessed by quantifying viral genomic RNA and protein inside Huh‐7 cells at the times p.i. shown in Figure 4A. Viral RNA was detectable as of ~12 h p.i. (Figure 4D), whereas viral protein was visible after 24 h p.i. (Figure 4B,C). In parallel, cells were exposed to viral inoculum for 2 h. […] Then, they were harvested at 48 h p.i. Viral RNA in cells was measured by qRT‐PCR and inhibition relative to DMSO‐treated cells was calculated, as described by (Figure 4G).
Figure 4 (A) Experimental design of the Time Of Addition (TOA) assay for PS1097 and SOF. (B) ZIKV replication kinetics was determined on Huh‐7 cells infected at MOI 1for 2 h by western blot cell lysates prepared at the times shown. ZIKV NS5 and GAPDH were monitored with the antibodies in Supporting Information: Table S1. (C) Quantitative analysis of the results in B). (D) qRT‐PCR quantification of ZIKV RNA was carried out in ZIKV‐infected cells lysed at the times indicated on the x axis. (E) western blot of lysates of Huh‐7 cells harvested at 48 h p.i. where treatment with PS1097 or SOF was started as by A). (F) Quantitative analysis of the results in E). (G) ZIKV RNA was quantified in lysates of cells harvested at 48 h p.i. where treatment with PS1097 (red line) or SOF (green line) was started at the times p.i. indicated on the x axis. (H) Combined antiviral activity of PS1097 with SOF against ZIKV. Huh‐7 cells were infected with ZIKV then treated with PS1097 or SOF, alone or in combination, at the indicated concentrations. After 48 h p.i., supernatants were harvested and titrated for ZIKV yield. Two‐dimensional representation of dose–response interaction matrix was determined in synergyfinder.org. Color gradient indicates viral yield inhibition score (red‐highest score). […]

The test system of assay [9] is ZIKV^Br.
The test system of assay [10] is TMEM41B. As to the kind of experiment: Western blot of ER proteins in Huh-7 cells: TMEM41B. The conditions noted are these: 6 μM PS1097, 48 h.

The record followed here is PMC12445440 (Journal of Medical Virology, 2025).

The EC50 is the concentration giving half of the maximal effect. Read a high EC50 as weaker potency. Consider `O=c1[nH]c2cc3cccnc3c(Cl)c2nc1-c1cccs1` [PS1097, 5‐chloro‐3‐(thiophen‐2‐yl) pyrido[2,3‐g] quinoxalin‐2(1H)‐one], for which the EC50 in [1] is 2.66 µM; in [2], 5.51 µM; in assay [3] it was 44.6 µM; in [4] it was over 50 µM; in assay [5], 1.73 µM; in [6], over 50 µM. Moreover, the “ZIKV protein expression (NS5, western blot)” value in [7] is “downregulated viral protein expression”. Moreover, the “Time of addition up to which viral protein expression is suppressed” value in assay [8] (Huh-7, ZIKV^Br MOI 1, 10x EC50 (6 μM)) is “up to 12 h p.i”. In addition, the “Time of addition giving the strongest inhibition” value in assay [8] (Huh-7, ZIKV^Br MOI 1, 10x EC50 (PS1097 6 μM, SOF 15 μM)) is given as 0–6 h p.i. Further, in assay [9] (ZIKV^Br passaged weekly on Huh-7 from 0.6 μM PS1097, at least four attempts), the “Selection of resistant ZIKV variants” value was “no resistant strains”. Also, in assay [9] (ZIKV^Br passaged weekly on Huh-7 in the presence of PS1097), the “Passage at which no viral yield was found” value is 9 passage. Also, the “TMEM41B protein content (western blot)” value in assay [10] is reported as “virtually unchanged”.
